In the supplement of paper PMC8617591:

Tests used:
[1] = tested on: Mycobacterium tuberculosis Erdman (autoluminescent); assay: total FIC50 (Loewe) at 50% inhibition, three-drug combination (log2); higher = more antagonistic
Procedure: (§1)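 DiaMOND equipotent three-drug combination dose responses (10 doses, 1.5- or 2-fold spacing, centred on IC90) against autoluminescent M. tuberculosis Erdman in 8 in vitro models. Read-out is OD600, or luminescence for the intracellular and dormancy models, normalised to untreated wells. Hill-fit Einf, AUC25 and GRinf are potency metrics; FIC50 and FIC90 are total Loewe fractional inhibitory concentrations as log2 (negative = synergy).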

[2] = tested on: Mycobacterium tuberculosis Erdman (autoluminescent); assay: total FIC90 (Loewe) at 90% inhibition, three-drug combination (log2); higher = more antagonistic
Procedure: as §1

[3] = tested on: Mycobacterium tuberculosis Erdman (autoluminescent); assay: Einf, fitted maximum growth inhibition of three-drug combination (fraction); higher = stronger maximal inhibition
Procedure: as §1

[4] = tested on: Mycobacterium tuberculosis Erdman (autoluminescent); assay: AUC25, normalised area under dose response up to IC25 (three-drug combination) (fraction (0-1)); higher = more potent at low dose
Procedure: as §1

[5] = tested on: Mycobacterium tuberculosis Erdman (autoluminescent); assay: GRinf, maximum normalised growth rate inhibition (three-drug combination) (unitless (-1 to 1)); higher = less effect (negative = killing)
Procedure: as §1

NNC(=O)c1ccncc1 [isoniazid] + NC(=O)c1cnccn1 [pyrazinamide] + CO[C@H]1/C=C/O[C@@]2(C)Oc3c(C)c(O)c4c(O)c(c(/C=N/N5CCN(C)CC5)c(O)c4c3C2=O)NC(=O)/C(C)=C\C=C\[C@H](C)[C@H](O)[C@@H](C)[C@@H](O)[C@@H](C)[C@H](OC(C)=O)[C@@H]1C [rifampicin]
Details | AUC25, [4] | Einf, [3] | GRinf, [5] | total FIC50, [1] | total FIC90, [2]
in vitro model: acidic pH 5.7, time point: constant (~7 days, model-specific) | 0.0814 | 0.864 | -0.12 | -1.79 | –
in vitro model: acidic pH 5.7, time point: terminal (~4-5 doublings, model-specific) | 0.0574 | 0.988 | -0.193 | -1.2 | -1.75
in vitro model: intracellular J774, time point: constant = terminal | – | 0.976 | -0.255 | – | 0.327

Details | AUC25, [4] | Einf, [3] | GRinf, [5] | total FIC50, [1] | total FIC90, [2]
in vitro model: butyrate, time point: constant (~7 days, model-specific) | 0.103 | 0.921 | 0.00703 | -2.04 | 0.665
in vitro model: butyrate, time point: terminal (~4-5 doublings, model-specific) | 0.0827 | 0.967 | 0.0033 | -2.09 | -2.12
in vitro model: cholesterol 0.05 mM, time point: constant (~7 days, model-specific) | 0.088 | 0.633 | -0.0371 | – | –
in vitro model: cholesterol 0.05 mM, time point: terminal (~4-5 doublings, model-specific) | 0.0858 | 0.865 | -0.1 | 0.166 | –
in vitro model: cholesterol-high 0.2 mM, time point: constant (~7 days, model-specific) | 0.0657 | 0.91 | -0.258 | 0.702 | –
in vitro model: cholesterol-high 0.2 mM, time point: terminal (~4-5 doublings, model-specific) | 0.0664 | 1 | -0.795 | 1.16 | 0.74
in vitro model: dormancy (butyrate + nitrate, low O2), time point: constant (~7 days, model-specific) | 0.0642 | 0.891 | 0.224 | -2.66 | -3.39
in vitro model: dormancy (butyrate + nitrate, low O2), time point: terminal (~4-5 doublings, model-specific) | 0.0565 | 0.979 | -0.0973 | -3.09 | -2.85
in vitro model: standard 7H9 glycerol, time point: constant = terminal | 0.0763 | 0.917 | 0.0491 | -5.81 | –
in vitro model: valerate, time point: constant (~7 days, model-specific) | 0.0587 | 0.86 | 0.0565 | -2.11 | –
in vitro model: valerate, time point: terminal (~4-5 doublings, model-specific) | 0.0331 | 0.928 | 0.0571 | -1.04 | -1.36

NNC(=O)c1ccncc1 [isoniazid] + O=[N+]([O-])c1cn2c(n1)OC[C@@H](OCc1ccc(OC(F)(F)F)cc1)C2 [pretomanid] + CO[C@H]1/C=C/O[C@@]2(C)Oc3c(C)c(O)c4c(O)c(c(/C=N/N5CCN(C6CCCC6)CC5)c(O)c4c3C2=O)NC(=O)/C(C)=C\C=C\[C@H](C)[C@H](O)[C@@H](C)[C@@H](O)[C@@H](C)[C@H](OC(C)=O)[C@@H]1C [rifapentine]
Details | AUC25, [4] | Einf, [3] | GRinf, [5] | total FIC50, [1] | total FIC90, [2]
in vitro model: acidic pH 5.7, time point: constant (~7 days, model-specific) | 0.0727 | 0.917 | -0.193 | 4.53 | –
in vitro model: acidic pH 5.7, time point: terminal (~4-5 doublings, model-specific) | 0.0598 | 0.992 | -0.24 | 4.23 | 4.33
in vitro model: intracellular J774, time point: constant = terminal | – | 0.999 | -0.647 | – | 0.264

Details | AUC25, [4] | Einf, [3] | GRinf, [5] | total FIC50, [1] | total FIC90, [2]
in vitro model: butyrate, time point: constant (~7 days, model-specific) | 0.0925 | 0.927 | -0.00998 | 2.86 | 1.02
in vitro model: butyrate, time point: terminal (~4-5 doublings, model-specific) | 0.0727 | 0.966 | 0.00856 | 2.77 | 2.95
in vitro model: cholesterol 0.05 mM, time point: constant (~7 days, model-specific) | 0.0995 | 0.687 | -0.151 | 1.97 | –
in vitro model: cholesterol 0.05 mM, time point: terminal (~4-5 doublings, model-specific) | 0.0863 | 0.914 | -0.223 | 2.05 | 0.57
in vitro model: cholesterol-high 0.2 mM, time point: constant (~7 days, model-specific) | 0.0548 | 0.808 | -0.0225 | 0.663 | –
in vitro model: cholesterol-high 0.2 mM, time point: terminal (~4-5 doublings, model-specific) | 0.0663 | 0.994 | -0.46 | 0.773 | 0.83
in vitro model: dormancy (butyrate + nitrate, low O2), time point: constant (~7 days, model-specific) | 0.0593 | 0.871 | 0.27 | 2.68 | 2.64
in vitro model: dormancy (butyrate + nitrate, low O2), time point: terminal (~4-5 doublings, model-specific) | 0.0428 | 0.978 | -0.11 | 2.7 | 2.66
in vitro model: standard 7H9 glycerol, time point: constant = terminal | 0.0426 | 0.884 | 0.179 | 4.92 | –
in vitro model: valerate, time point: constant (~7 days, model-specific) | 0.102 | 0.894 | -0.014 | 2.74 | –
in vitro model: valerate, time point: terminal (~4-5 doublings, model-specific) | 0.0549 | 0.938 | -0.167 | 3.29 | 2.95

NNC(=O)c1ccncc1 [isoniazid] + O=[N+]([O-])c1cn2c(n1)OC[C@@H](OCc1ccc(OC(F)(F)F)cc1)C2 [pretomanid] + CO[C@H]1/C=C/O[C@@]2(C)Oc3c(C)c(O)c4c(O)c(c(/C=N/N5CCN(C)CC5)c(O)c4c3C2=O)NC(=O)/C(C)=C\C=C\[C@H](C)[C@H](O)[C@@H](C)[C@@H](O)[C@@H](C)[C@H](OC(C)=O)[C@@H]1C [rifampicin]
Details | AUC25, [4] | Einf, [3] | GRinf, [5] | total FIC50, [1] | total FIC90, [2]
in vitro model: acidic pH 5.7, time point: constant (~7 days, model-specific) | 0.0775 | 0.859 | -0.11 | 3.95 | –
in vitro model: acidic pH 5.7, time point: terminal (~4-5 doublings, model-specific) | 0.0694 | 0.984 | -0.197 | 3.6 | 3.63
in vitro model: intracellular J774, time point: constant = terminal | – | 0.984 | -0.312 | – | -0.077

Details | AUC25, [4] | Einf, [3] | GRinf, [5] | total FIC50, [1] | total FIC90, [2]
in vitro model: butyrate, time point: constant (~7 days, model-specific) | 0.0916 | 0.923 | 0.00511 | 2.61 | 0.589
in vitro model: butyrate, time point: terminal (~4-5 doublings, model-specific) | 0.0722 | 0.963 | 0.0279 | 2.48 | 2.45
in vitro model: cholesterol 0.05 mM, time point: constant (~7 days, model-specific) | 0.0953 | 0.655 | -0.0786 | 1.31 | –
in vitro model: cholesterol 0.05 mM, time point: terminal (~4-5 doublings, model-specific) | 0.0868 | 0.899 | -0.194 | 1.53 | 0.957
in vitro model: cholesterol-high 0.2 mM, time point: constant (~7 days, model-specific) | 0.0449 | 0.872 | -0.204 | 0.405 | –
in vitro model: cholesterol-high 0.2 mM, time point: terminal (~4-5 doublings, model-specific) | 0.0391 | 0.977 | -0.604 | 0.794 | 0.324
in vitro model: dormancy (butyrate + nitrate, low O2), time point: constant (~7 days, model-specific) | 0.066 | 0.857 | 0.266 | 2.35 | 2.04
in vitro model: dormancy (butyrate + nitrate, low O2), time point: terminal (~4-5 doublings, model-specific) | 0.0408 | 0.974 | -0.0694 | 2.21 | 2.12
in vitro model: standard 7H9 glycerol, time point: constant = terminal | 0.0661 | 0.893 | 0.151 | 5.01 | 3.36
in vitro model: valerate, time point: constant (~7 days, model-specific) | 0.0615 | 0.863 | 0.000666 | 3.28 | –
in vitro model: valerate, time point: terminal (~4-5 doublings, model-specific) | 0.0349 | 0.939 | 0.0355 | 3.03 | 1.97
